Source: paper PMC4767605 (Cancer chemotherapy and pharmacology, 2016)
Read-outs that look alike come from different tables or passages of the source.

[1] = Cohort 3 (n=3): ASP9853 37.5 mg + docetaxel 60 mg/m^2
[2] = Cohort 4 (n=7): ASP9853 50 mg + docetaxel 60 mg/m^2
[3] = Total ASP9853 combination with docetaxel (n=20)
[4] = lead-in phase, ASP9853 single agent
[5] = patients receiving ASP9853 in combination with docetaxel

SMILES: O.O.O=C(/C=C/c1ccc(Cl)cc1)N[C@@H](Cc1ccccn1)C(=O)NCC(=O)N1CCC(Oc2cc(C(F)(F)F)ncn2)CC1 [ASP9853, (2E)-3-(4-chlorophenyl)-N-[(1S)-2-oxo-2-{[2-oxo-2-(4-{[6-(trifluoromethyl)-4-pyrimidinyl]oxy}-1-piperidinyl)ethyl]amino}-1-(2-pyridinylmethyl)ethyl]acrylamide dehydrate]
- AE potentially related to ASP9853: Decreased appetite; Grade All [1]: 1 (33) n (%)
- AE potentially related to ASP9853: Diarrhea; Grade 3/4 (only Grade 3) [1]: 0 n (%)
- AE potentially related to ASP9853: Diarrhea; Grade All [1]: 1 (33) n (%)
- AE potentially related to ASP9853: Dizziness; Grade 3/4 [1]: 0 n (%)
- AE potentially related to ASP9853: Dizziness; Grade All [1]: 1 (33) n (%)
- AE potentially related to ASP9853: Fatigue; Grade 3/4 (only Grade 3) [1]: 0 n (%)
- AE potentially related to ASP9853: Fatigue; Grade All [1]: 2 (67) n (%)
- AE potentially related to ASP9853: Febrile neutropenia; Grade 3/4 [1]: 0 n (%)
- AE potentially related to ASP9853: Febrile neutropenia; Grade All [1]: 0 n (%)
- AE potentially related to ASP9853: Nausea; Grade 3/4 [1]: 0 n (%)
- AE potentially related to ASP9853: Nausea; Grade All [1]: 1 (33) n (%)
- AE potentially related to ASP9853: Neutropenia; Grade 3/4 [1]: 1 (33) n (%)
- AE potentially related to ASP9853: Neutropenia; Grade All [1]: 1 (33) n (%)
- AE potentially related to ASP9853: Neutrophil count decreased; Grade 3/4 [1]: 1 (33) n (%)
- AE potentially related to ASP9853: Neutrophil count decreased; Grade All [1]: 1 (33) n (%)
- AE potentially related to ASP9853: Overall; Grade 3/4 [1]: 2 (67) n (%)
- AE potentially related to ASP9853: Overall; Grade All [1]: 3 (100) n (%)
- AE potentially related to ASP9853: Vomiting; Grade 3/4 [1]: 0 n (%)
- AE potentially related to ASP9853: Vomiting; Grade All [1]: 0 n (%)
- AE potentially related to ASP9853: White blood cell count decreased; Grade All [1]: 2 (67) n (%)
- DLTs (Cohort 3: ASP9853 37.5 mg + docetaxel 60 mg/m^2, three patients): no DLTs were observed
- SAE considered related to ASP9853: leukopenia (Cohort 4): 1 n
- SAE considered related to ASP9853: neutropenia (Cohort 4): 1 n
- AE potentially related to ASP9853: Anemia; Grade 3/4 [2]: 0 n (%)
- AE potentially related to ASP9853: Anemia; Grade All [2]: 1 (14) n (%)
- AE potentially related to ASP9853: Asthenia; Grade 3/4 [2]: 0 n (%)
- AE potentially related to ASP9853: Asthenia; Grade All [2]: 0 n (%)
- AE potentially related to ASP9853: Constipation; Grade 3/4 [2]: 0 n (%)
- AE potentially related to ASP9853: Constipation; Grade All [2]: 1 (14) n (%)
- AE potentially related to ASP9853: Decreased appetite; Grade 3/4 [2]: 0 n (%)
- AE potentially related to ASP9853: Decreased appetite; Grade All [2]: 0 n (%)
- AE potentially related to ASP9853: Diarrhea; Grade 3/4 (only Grade 3) [2]: 0 n (%)
- AE potentially related to ASP9853: Diarrhea; Grade All [2]: 0 n (%)
- AE potentially related to ASP9853: Dizziness; Grade 3/4 [2]: 0 n (%)
- AE potentially related to ASP9853: Dizziness; Grade All [2]: 2 (29) n (%)
- AE potentially related to ASP9853: Fatigue; Grade 3/4 (only Grade 3) [2]: 1 (14) n (%)
- AE potentially related to ASP9853: Fatigue; Grade All [2]: 2 (29) n (%)
- AE potentially related to ASP9853: Febrile neutropenia; Grade 3/4 [2]: 0 n (%)
- AE potentially related to ASP9853: Febrile neutropenia; Grade All [2]: 0 n (%)
- AE potentially related to ASP9853: Nausea; Grade 3/4 [2]: 0 n (%)
- AE potentially related to ASP9853: Nausea; Grade All [2]: 1 (14) n (%)
- AE potentially related to ASP9853: Neutropenia; Grade 3/4 [2]: 2 (29) n (%)
- AE potentially related to ASP9853: Neutropenia; Grade All [2]: 2 (29) n (%)
- AE potentially related to ASP9853: Neutrophil count decreased; Grade 3/4 [2]: 1 (14) n (%)
- AE potentially related to ASP9853: Neutrophil count decreased; Grade All [2]: 1 (14) n (%)
- AE potentially related to ASP9853: Overall; Grade 3/4 [2]: 4 (57) n (%)
- AE potentially related to ASP9853: Overall; Grade All [2]: 7 (100) n (%)
- AE potentially related to ASP9853: Vomiting; Grade 3/4 [2]: 0 n (%)
- AE potentially related to ASP9853: Vomiting; Grade All [2]: 1 (14) n (%)
- AE potentially related to ASP9853: White blood cell count decreased; Grade All [2]: 2 (29) n (%)
- AE potentially related to ASP9853: Anemia; Grade 3/4 [3]: 0 n (%)
- AE potentially related to ASP9853: Anemia; Grade All [3]: 3 (15) n (%)
- AE potentially related to ASP9853: Asthenia; Grade 3/4 [3]: 0 n (%)
- AE potentially related to ASP9853: Asthenia; Grade All [3]: 2 (10) n (%)
- AE potentially related to ASP9853: Constipation; Grade 3/4 [3]: 0 n (%)
- AE potentially related to ASP9853: Constipation; Grade All [3]: 3 (15) n (%)
- AE potentially related to ASP9853: Decreased appetite; Grade 3/4 [3]: 0 n (%)
- AE potentially related to ASP9853: Decreased appetite; Grade All [3]: 2 (10) n (%)
- AE potentially related to ASP9853: Diarrhea; Grade 3/4 (only Grade 3) [3]: 1 (5) n (%)
- AE potentially related to ASP9853: Diarrhea; Grade All [3]: 4 (20) n (%)
- AE potentially related to ASP9853: Dizziness; Grade 3/4 [3]: 0 n (%)
- AE potentially related to ASP9853: Dizziness; Grade All [3]: 3 (15) n (%)
- AE potentially related to ASP9853: Fatigue; Grade 3/4 (only Grade 3) [3]: 2 (10) n (%)
- AE potentially related to ASP9853: Fatigue; Grade All [3]: 9 (45) n (%)
- AE potentially related to ASP9853: Febrile neutropenia; Grade 3/4 [3]: 2 (10) n (%)
- AE potentially related to ASP9853: Febrile neutropenia; Grade All [3]: 2 (10) n (%)
- AE potentially related to ASP9853: Nausea; Grade 3/4 [3]: 0 n (%)
- AE potentially related to ASP9853: Nausea; Grade All [3]: 4 (20) n (%)
- AE potentially related to ASP9853: Neutropenia; Grade 3/4 [3]: 4 (20) n (%)
- AE potentially related to ASP9853: Neutropenia; Grade All [3]: 4 (20) n (%)
- AE potentially related to ASP9853: Neutrophil count decreased; Grade 3/4 [3]: 2 (10) n (%)
- AE potentially related to ASP9853: Neutrophil count decreased; Grade All [3]: 2 (10) n (%)
- AE potentially related to ASP9853: Overall; Grade 3/4 [3]: 11 (55) n (%)
- AE potentially related to ASP9853: Overall; Grade All [3]: 18 (90) n (%)
- AE potentially related to ASP9853: Vomiting; Grade 3/4 [3]: 0 n (%)
- AE potentially related to ASP9853: Vomiting; Grade All [3]: 4 (20) n (%)
- AE potentially related to ASP9853: White blood cell count decreased; Grade All [3]: 5 (25) n (%)
- Patients with AEs considered to be potential DLTs (all cohorts, ASP9853 + docetaxel): Five
- Patients who met the protocol-defined DLT criteria (in Cohorts 1 and 2): three
- Patients with post-baseline maximum Grade 1 neutropenia (laboratory evaluation): three
- Patients with post-baseline maximum Grade 4 neutropenia (laboratory evaluation): eight
- AE possibly related to ASP9853: QT prolonged electrocardiogram [4]: 1 n
- AE possibly related to ASP9853: arthralgia [4]: 1 n
- AE possibly related to ASP9853: asthenia [4]: 1 n
- AE possibly related to ASP9853: gastrooesophageal reflux disease [4]: 1 n
- AE possibly related to ASP9853: leukopenia [4]: 1 n
- AE possibly related to ASP9853: nausea [4]: 1 n
- AE possibly related to ASP9853: pollakiuria [4]: 1 n
- AE possibly related to ASP9853: vomiting [4]: 1 n
- AE regardless of relationship to study drug: alopecia [5]: 30.0%
- AE regardless of relationship to study drug: decreased appetite [5]: 30.0%
- AE regardless of relationship to study drug: decreased white blood cells [5]: 35.0%
- AE regardless of relationship to study drug: fatigue [5]: 45.0%
- AE regardless of relationship to study drug: nausea [5]: 35.0%
- AE regardless of relationship to study drug: neutropenia [5]: 50.0%
